Counter-ions that a name gives are not always drawn. Like-named read-outs stand apart in the source and are kept apart here.
Columns and labels:
NMRI male mice = experiment: Methylphenidate antagonism in mice; assay type: in vivo; conditions: for ED50: Mus musculus, ip
Procedure: 1. As animals were used NMRI male mice weighing 18-25 grams.
3 × 2 or 5 × 2 mice are used for each dose level. Thirty minutes, 1 hour, 2 hours, 3 hours etc. after i.p. injection of test substance, methylphenidate, 60 mg/kg, is injected s.c. At each time interval separate groups of mice were used. After administration of methylphenidate the mice are placed in the observation cages, 2 in each cage, where they remain for 1 hour. The cages are placed on corrugated paper, the corrugations facing upwards. It is examined whether or not the mice have been biting the corrugated paper. […] The peak effect was determined for the test substances and also for a number of known neuroleptics.

[1] = Catalepsy-inducing effect in rats; assay type: in vivo, male Wistar rats; conditions: rat, in vivo, sc
Procedure: (§1) Reference is made to L. Juluo: "On the Interaction between Neuroleptics and Antiparkinson Drugs." Modern Problems of Pharmacopsychiatry, vol. 5, pg, 50-54. The test may be described as follows:
(§2) Five animals are used at each dose level.
(§3) The test compound is injected subcutaneously (s.c.)
(§4) Injection volume is 5 ml of the vehicle/kg b.w.
(§5) Except when otherwise stated saline is used as vehicle.
(§6) The animals are placed in the middle of a vertical wire netting (50 cm/49 cm) 60, 120, 180, 240, 300 and 360 minutes after injection of the test compound.
(§7) The animals are considered cataleptic when they remain immobile during a period of 15 seconds. This cataleptic reaction is designated: + (plus). Untreated animals climb normally up and down the wire netting. The absence of catalepsy is designated: - (minus). The results are expressed as fractions as follows: 0/5, 1/5, 2/5, 3/5, 4/5 and 5/5 in which 0, 1, 2, 3,4 and 5 represent the number of cataleptic animals out of five animals tested.

male Wistar rats = experiment: Catalepsy-inducing effect in rats; assay type: in vivo; conditions: catalepsy (rats) / methylphenidate antagonism peak effect (mice)
Procedure: as §1, §2, §3, §4, §5, §6, §7

[2] = pure α-isomers of known neuroleptics; cited from earlier work
[3] = tested on: adult purebred Beagle dogs; experiment: Apomorphine antagonism in dogs; assay type: in vivo
From the text: Especially when testing esters of the compounds of Formula I it has been found advantageous to use the wellrecognized test which is based upon the fact that strong neuroleptics antagonize apomorphine induced vomiting in dogs. The test is described by P. A. J. Janssen, C. J. E. Niemegeers and K. H. L. Schellehaus: "Is it possible to predict the clinical effects of neuroleptic drugs (major tranquillizers) from animal data" ?, Part II, Arzneimittel Forschung, 15, 1196-1206, 1965. In order to evaluate esters of the compounds of Formula I a modified method is described by M. Nymark et al. in Acta pharmacol. et toxicol. 1973, 33, 363-376. The test may be described shortly as follows:
As animals were used adult purebred Beagle dogs of either sex. The threshold-dose of apomorphine hydrochloride for the induction of vomiting in the dogs has been determined to be 0.025 mg/kg intravenously. After this dose vomiting occurs within a few minutes of the injection. Four dogs were used for each dose level of the drug, which was injected subcutaneously at the back of the neck. At different times after the drug administration the dogs were then challenged with apomorphine according to an "up-and-down" schedule using the dose-range 0.025- 0.400 mg/kg intravenously geometrically spaced. […] In this way it was possible to estimate at which level of apomorphine the dogs were protected at a given time. The dogs were fed half an hour before testing to ensure an easy vomiting.

rats = experiment: Antagonism of amphetamine-induced stereotyped behaviour in rats; assay type: in vivo
Procedure: The modification used by us was as follows:
The animals were then placed in individual cages. […] The absence of stereotypy was interpreted as a drug effect. ED50 values for protection against stereotypy were determined. All compounds were tested at a minimum of three dose levels using 10 rats per dose, and the observer was kept unaware of the identity of the groups until after the experiment.

[4] = mice, i.p., 24 h after injection, read-out: Methylphenidate antagonism ED50, 24 h
[5] = mice, i.p., peak effect, methylphenidate 60 mg/kg s.c., read-out: Methylphenidate antagonism, peak effect ED50
[6] = rats, s.c., dose producing catalepsy in 50% of the animals, read-out: Catalepsy ED50 max.
[7] = read-out: Methylphenidate antagonism, peak effect ED50

OCCN1CCN(CCCC2c3ccc(F)cc3Sc3ccc(C(F)(F)F)cc32)CC1 (stereo not drawn) [Substance 1]
ED50 (NMRI male mice; [4]): 1.66 mg/kg | ED50 (NMRI male mice; [5]): 0.04 mg/kg | ED50 [1]: 0.9 mg/kg

CN1CCN(CCCC2c3ccc(F)cc3Sc3ccc(C(F)(F)F)cc32)CC1 (stereo not drawn) [Substance 2, 2-trifluoromethyl-6-fluoro-9-(3-(4-methyl-1-piperazinyl)propyl)thiaxanthene]
ED50 (NMRI male mice; [4]): > 10 mg/kg | ED50 (NMRI male mice; [5]): 0.3 mg/kg | duration of peak effect (NMRI male mice; mice, i.p.): > 5 h | ED50 [1, 6]: 3.1 mg/kg | Ratio Cat./Meth (catalepsy/methylphenidate antagonism) (male Wistar rats): 10

OCCN1CCN(CCCC2c3ccc(F)cc3Sc3ccc(Cl)cc32)CC1 (stereo not drawn) [Substance 3, 2-chloro-6-fluoro-9-(3-(4-(2-hydroxyethyl)-1-piperazinyl)propyl)-thiaxanthene]
ED50 (NMRI male mice; [4]): 7.1 mg/kg | ED50 (NMRI male mice; [5]): 0.8 mg/kg | duration of peak effect (NMRI male mice; mice, i.p.): > 5 h | ED50 [1, 6]: 2.7 mg/kg | Ratio Cat./Meth (catalepsy/methylphenidate antagonism) (male Wistar rats): 3.4

CN1CCN(CCCC2c3ccc(F)cc3Sc3ccc(S(=O)(=O)N(C)C)cc32)CC1 (stereo not drawn) [Substance 4, 2-dimethylsulfamoyl-6-fluoro-9-(3-(4-methylpiperazine-1-yl)propyl)-thiaxanthene]
ED50 (NMRI male mice; [4]): > 5 mg/kg | ED50 (NMRI male mice; [5]): 1 mg/kg | ED50 [1, 6]: 3.1 mg/kg | Ratio Cat./Meth (catalepsy/methylphenidate antagonism) (male Wistar rats): 3.1

CN1CCN(CCC=C2c3ccc(F)cc3Sc3ccc(S(=O)(=O)N(C)C)cc32)CC1 [Substance 5, 2-dimethylsulfamoyl-6-fluoro-9-(3-(4-methylpiperazine-1-yl)propylidene)-thiaxanthene]
ED50 (NMRI male mice; [4]): > 10 mg/kg | ED50 (NMRI male mice; [5]): 0.4 mg/kg | duration of peak effect (NMRI male mice; mice, i.p.): > 5 h | ED50 [1, 6]: 1 mg/kg | Ratio Cat./Meth (catalepsy/methylphenidate antagonism) (male Wistar rats): 2.5

OCCN1CCN(CCC=C2c3ccc(F)cc3Sc3ccc(C(F)(F)F)cc32)CC1 [Substance 6]
ED50 (NMRI male mice; [4]): 0.24 mg/kg | ED50 (NMRI male mice; [5]): 0.05 mg/kg | ED50 [1, 6]: 0.12 mg/kg

OCCN1CCN(CCC=C2c3ccc(F)cc3Sc3ccc(Cl)cc32)CC1 [Substance 7]
ED50 (NMRI male mice; [4]): > 10 mg/kg | ED50 (NMRI male mice; [5]): 0.4 mg/kg | duration of peak effect (NMRI male mice; mice, i.p.): > 5 h | ED50 [1, 6]: 2 mg/kg | Ratio Cat./Meth (catalepsy/methylphenidate antagonism) (male Wistar rats): 5

OCCN1CCN(CCCC2c3ccc(Cl)cc3Sc3ccc(C(F)(F)F)cc32)CC1 (stereo not drawn) [Substance 8, reference compound]
ED50 (NMRI male mice; [5]): 4 mg/kg | ED50 [1, 6]: > 20 mg/kg | Ratio Cat./Meth (catalepsy/methylphenidate antagonism) (male Wistar rats): > 5

OCCN1CCN(CCCC2c3cc(C(F)(F)F)ccc3Sc3c(Cl)cccc32)CC1 (stereo not drawn) [Substance 9, reference compound]
ED50 (NMRI male mice; [5]): 14 mg/kg | ED50 [1, 6]: > 20 mg/kg | Ratio Cat./Meth (catalepsy/methylphenidate antagonism) (male Wistar rats): 1.5

OCCN1CCN(CCCC2c3cc(C(F)(F)F)ccc3Sc3c2cccc3C(F)(F)F)CC1 (stereo not drawn) [Substance 10, reference compound]
ED50 (NMRI male mice; [5]): > 10 mg/kg | ED50 [1, 6]: > 20 mg/kg

OCCN1CCN(CCCC2c3ccc(C(F)(F)F)cc3Sc3ccc(C(F)(F)F)cc32)CC1 (stereo not drawn) [Substance 11, reference compound]
ED50 (NMRI male mice; [5]): > 10 mg/kg | ED50 [1, 6]: > 20 mg/kg

CN(C)S(=O)(=O)c1ccc2c(c1)C(=CCCN1CCC(CCO)CC1)c1ccc(F)cc1S2 [Substance 12, 2-Dimethylsulfamoyl-6-fluoro-9-(3-(4-(2-hydroxyethyl)-1-piperidyl)propylidene)-thiaxanthene]
ED50 (NMRI male mice; [4]): > 10 mg/kg | ED50 (NMRI male mice; [5]): 0.87 mg/kg | ED50 [1, 6]: 0.69 mg/kg | Ratio Cat./Meth (catalepsy/methylphenidate antagonism) (male Wistar rats): 0.8

OCCC1CCN(CCC=C2c3ccc(F)cc3Sc3ccc(C(F)(F)F)cc32)CC1 [Substance 13]
ED50 (NMRI male mice; 24 h, read-out: Methylphenidate antagonism ED50, 24 h): 0.03 mg/kg | ED50 (NMRI male mice; [7]): 0.03 mg/kg | ED50 [1, 6]: 0.05 mg/kg

OCCC1CCN(CCCC2c3ccc(F)cc3Sc3ccc(C(F)(F)F)cc32)CC1 (stereo not drawn) [Substance 14, 2-Trifluoromethyl-6-fluoro-9-(3-(4-(2-hydroxyethyl)-1-piperidyl)propyl)-thiaxanthene]
ED50 (NMRI male mice; [4]): 3.6 mg/kg | ED50 (NMRI male mice; [5]): 0.25 mg/kg | ED50 [1, 6]: 0.21 mg/kg | Ratio Cat./Meth (catalepsy/methylphenidate antagonism) (male Wistar rats): 0.8

OCCC1CCN(CCC=C2c3ccc(F)cc3Sc3ccc(Cl)cc32)CC1 [Substance 15, 2-chloro-6-fluoro-9-(3-(4-(2-hydroxyethyl)piperidin-1-yl)propylidene)thiaxanthene]
ED50 (NMRI male mice; [4]): 0.27 mg/kg | ED50 (NMRI male mice; [5]): 0.08 mg/kg | ED50 [1, 6]: 0.07 mg/kg | Ratio Cat./Meth (catalepsy/methylphenidate antagonism) (male Wistar rats): 0.9

CN1CCN(CC/C=C2/c3ccccc3Sc3ccc(S(=O)(=O)N(C)C)cc32)CC1 [Thiothixene, reference compound]
ED50 (NMRI male mice; [4]): > 40 mg/kg | ED50 (NMRI male mice; [5]): 0.4 mg/kg | ED50 [1]: 0.06 mg/kg | Ratio Cat./Meth (catalepsy/methylphenidate antagonism) (male Wistar rats): 0.14 | activity of the α-isomer relative to the β-isomer (in words) [2]: most active isomers

CN1CCc2cccc3c2[C@H]1Cc1ccc(O)c(O)c1-3 [apomorphine hydrochloride, reference compound]
minimal effective dose ([3]; Canis lupus familiaris, iv, intravenously, read-out: threshold-dose for the induction of vomiting): 0.025 mg/kg

CCCCCCCCCCCCCCCCCCCCCC(=O)OCCC1CCN(CCC=C2c3ccc(F)cc3Sc3ccc(C(F)(F)F)cc32)CC1 [behenic acid ester of Lu 12-331, behenic acid ester of the alpha-isomer of 2-trifluoromethyl-6-fluoro-9-(3-(4-(2-hydroxyethyl)-1-piperidyl)propylidene)-thiaxanthene]
sedation compared with the palmitic acid ester ([3]; 1 mg/kg subcutaneously as Lu 12-331, first week): less sedation in the first week | duration of maximal protection ([3]; 1.6 mg/kg s.c. of ester): 15 days | time after which the effect had disappeared ([3]; 1.6 mg/kg s.c. of ester): 26 days | maximal protection against apomorphine ([3]; 1.6 mg/kg s.c. of ester ~ 1 mg/kg of Lu 12-331): 16 × threshold dose of apomorphine | protection against apomorphine 21 days after the injection ([3]; 1.6 mg/kg s.c. of ester, 21 days): ~ 12 × threshold dose | sedation ([3]; 1.6 mg/kg s.c. of ester, at any time): No sedation | duration of protection against amphetamine-induced stereotypies (rats; 5 mg/kg s.c.): 21 days | sedation (rats; 5 mg/kg s.c.): hardly any sedation

CN(C)CCCN1c2ccccc2Sc2ccc(Cl)cc21 [chlorpromazine, reference compound]
ED50 (NMRI male mice; [7]): 4 mg/kg | ED50 [1]: 4 mg/kg | Ratio Cat./Meth (catalepsy/methylphenidate antagonism) (male Wistar rats): 1.0

CCCCCCCCCCCCCCCC(=O)OCCC1CCN(CCC=C2c3ccc(F)cc3Sc3ccc(C(F)(F)F)cc32)CC1 [palmitic acid ester of Lu 12-331, palmitic acid ester of the alpha-isomer of 2-trifluoromethyl-6-fluoro-9-(3-(4-(2-hydroxyethyl)-1-piperidyl)propylidene)-thiaxanthene]
sedation (rats; 2-5 mg/kg s.c.): pronounced sedation lasting for several days

CCCCCCCCCC(=O)OCCN1CCN(CC/C=C2/c3ccccc3Sc3ccc(C(F)(F)F)cc32)CC1 [reference compound]
day after the injection on which the effect had disappeared ([3]; 2 mg/kg s.c.): 11 days | degree of protection against apomorphine ([3]; 2 mg/kg s.c.): 3 × threshold dose

OCCN1CCN(CC/C=C2/c3ccccc3Sc3ccc(Cl)cc32)CC1 [α-Clopenthixol, reference compound]
ED50 (NMRI male mice; [4]): > 40 mg/kg | ED50 (NMRI male mice; [5]): 0.7 mg/kg | duration of peak effect (NMRI male mice; mice, i.p.): 5 h | ED50 [1]: 0.45 mg/kg | Ratio Cat./Meth (catalepsy/methylphenidate antagonism) (male Wistar rats): 0.7 | activity of the α-isomer relative to the β-isomer (in words) [2]: most active isomers

OCCN1CCN(CC/C=C2/c3ccccc3Sc3ccc(C(F)(F)F)cc32)CC1 [α-Flupenthixol, reference compound]
ED50 (NMRI male mice; [4]): 17 mg/kg | ED50 (NMRI male mice; [5]): 0.07 mg/kg | duration of peak effect (NMRI male mice; mice, i.p.): 6 h | ED50 [1]: 0.12 mg/kg | Ratio Cat./Meth (catalepsy/methylphenidate antagonism) (male Wistar rats): 1.74 | activity of the α-isomer relative to the β-isomer (in words) [2]: most active isomers

From patent US4042695A, “Thiaxanthene derivatives, compositions thereof and methods of treating therewith” (priority 1972, dated 1977)
